Data: PubChem BioAssay AID2060604 (Molecular Pharmacology Branch, DTP, NCI, 2025)

System: 379773-124-R-J2-PDC complex spheroids, viability % test/control
Experiment: Anticancer human tumor 379773-124-R-J2-PDC patient-derived endometrial carcinoma cell line growth inhibition [CLK]
Conditions: for IC50: curve of first compound; for viability, T/C: stronger effect = lower value
Summary of the method: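 Patient-derived tumor cells grown as complex spheroids with HUVEC endothelial cells and mesenchymal stem cells, treated with drug combinations. Concentrations descend in half-log steps from near clinical Cmax, or from 10 microM if Cmax unknown.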

[1] = second compound 0.0316 µM, first compound 0.0316 µM
[2] = second compound 0.0316 µM, first compound 0.1 µM
[3] = second compound 0.1 µM, first compound 0.0316 µM
[4] = second compound 0.1 µM, first compound 0.1 µM
[5] = second compound 0.316 µM, first compound 0.0316 µM
[6] = second compound 0.316 µM, first compound 0.1 µM
[7] = second compound 1 µM, first compound 0.0316 µM
[8] = second compound 1 µM, first compound 0.1 µM
[9] = second compound 3.16 µM, first compound 0.0316 µM
[10] = second compound 3.16 µM, first compound 0.1 µM
[11] = second compound 10 µM, first compound 0.0316 µM
[12] = second compound 10 µM, first compound 0.1 µM
[13] = second compound 0.0316 µM, first compound 0.316 µM
[14] = second compound 0.0316 µM, first compound 1 µM
[15] = second compound 0.0316 µM, first compound 3.16 µM
[16] = second compound 0.0316 µM, first compound 10 µM
[17] = second compound 0.1 µM, first compound 0.316 µM
[18] = second compound 0.1 µM, first compound 1 µM
[19] = second compound 0.1 µM, first compound 3.16 µM
[20] = second compound 0.1 µM, first compound 10 µM
[21] = second compound 0.316 µM, first compound 0.316 µM
[22] = second compound 0.316 µM, first compound 1 µM
[23] = second compound 0.316 µM, first compound 3.16 µM
[24] = second compound 0.316 µM, first compound 10 µM
[25] = second compound 1 µM, first compound 0.316 µM
[26] = second compound 1 µM, first compound 1 µM
[27] = second compound 1 µM, first compound 3.16 µM
[28] = second compound 1 µM, first compound 10 µM
[29] = second compound 3.16 µM, first compound 0.316 µM
[30] = second compound 3.16 µM, first compound 1 µM
[31] = second compound 3.16 µM, first compound 3.16 µM
[32] = second compound 3.16 µM, first compound 10 µM
[33] = second compound 10 µM, first compound 0.316 µM
[34] = second compound 10 µM, first compound 1 µM
[35] = second compound 10 µM, first compound 3.16 µM
[36] = second compound 10 µM, first compound 10 µM
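Also: compound exposure lasted seven days before the viability readout.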
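For viability, T/C in this document: 100% = DMSO vehicle control wells.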

Compound: Cn1ncnc1[C@H]1c2n[nH]c(=O)c3cc(F)cc(c23)N[C@@H]1c1ccc(F)cc1 + CN1CCN(c2cc(C(=O)Nc3cc4cc(-c5cnn(C)c5)ccc4cn3)ccn2)CC1
- IC50 (second compound 0.0316 µM): 42.6 nM
- IC50 (second compound 0.1 µM): 22.2 nM
- IC50 (second compound 0.316 µM): < 0.316 nM
- IC50 (second compound 1 µM): < 0.316 nM
- IC50 (second compound 3.16 µM): < 0.316 nM
- IC50 (second compound 10 µM): < 0.316 nM
- viability, T/C (second compound 0.0316 µM, first compound 0.000316 µM): 87.8%
- viability, T/C (second compound 0.0316 µM, first compound 0.001 µM): 96.2%
- viability, T/C (second compound 0.0316 µM, first compound 0.00316 µM): 80.3%
- viability, T/C (second compound 0.0316 µM, first compound 0.01 µM): 92.6%
- viability, T/C [1]: 55.6%
- viability, T/C [2]: 34%
- viability, T/C (second compound 0.1 µM, first compound 0.000316 µM): 87%
- viability, T/C (second compound 0.1 µM, first compound 0.001 µM): 82.6%
- viability, T/C (second compound 0.1 µM, first compound 0.00316 µM): 79.1%
- viability, T/C (second compound 0.1 µM, first compound 0.01 µM): 64.1%
- viability, T/C [3]: 43.6%
- viability, T/C [4]: 27%
- viability, T/C (second compound 0.316 µM, first compound 0.000316 µM): 24.1%
- viability, T/C (second compound 0.316 µM, first compound 0.001 µM): 29.2%
- viability, T/C (second compound 0.316 µM, first compound 0.00316 µM): 17.9%
- viability, T/C (second compound 0.316 µM, first compound 0.01 µM): 21.4%
- viability, T/C [5]: 15.2%
- viability, T/C [6]: 12.3%
- viability, T/C (second compound 1 µM, first compound 0.000316 µM): 0.11%
- viability, T/C (second compound 1 µM, first compound 0.001 µM): 0.8%
- viability, T/C (second compound 1 µM, first compound 0.00316 µM): 0.33%
- viability, T/C (second compound 1 µM, first compound 0.01 µM): 0.19%
- viability, T/C [7]: 0.06%
- viability, T/C [8]: 0.07%
- viability, T/C (second compound 3.16 µM, first compound 0.000316 µM): 1.37%
- viability, T/C (second compound 3.16 µM, first compound 0.001 µM): 0.24%
- viability, T/C (second compound 3.16 µM, first compound 0.00316 µM): 0.23%
- viability, T/C (second compound 3.16 µM, first compound 0.01 µM): 0.07%
- viability, T/C [9]: 1.63%
- viability, T/C [10]: 0.08%
- viability, T/C (second compound 10 µM, first compound 0.000316 µM): 1.25%
- viability, T/C (second compound 10 µM, first compound 0.001 µM): 0.1%
- viability, T/C (second compound 10 µM, first compound 0.00316 µM): 0.49%
- viability, T/C (second compound 10 µM, first compound 0.01 µM): 0.52%
- viability, T/C [11]: 0.29%
- viability, T/C [12]: 0.13%

Compound: Nc1ccn(C2OC(CO)C(O)C2(F)F)c(=O)n1 (stereo unspecified) + CN1CCN(c2cc(C(=O)Nc3cc4cc(-c5cnn(C)c5)ccc4cn3)ccn2)CC1
- IC50 (second compound 0.0316 µM): < 31.6 nM
- IC50 (second compound 0.1 µM): < 31.6 nM
- IC50 (second compound 0.316 µM): < 31.6 nM
- IC50 (second compound 1 µM): < 31.6 nM
- IC50 (second compound 3.16 µM): < 31.6 nM
- IC50 (second compound 10 µM): < 31.6 nM
- viability, T/C [1]: 10.9%
- viability, T/C [2]: 5.93%
- viability, T/C [13]: 5%
- viability, T/C [14]: 6.45%
- viability, T/C [15]: 6.59%
- viability, T/C [16]: 3.28%
- viability, T/C [3]: 10.4%
- viability, T/C [4]: 5.09%
- viability, T/C [17]: 4.66%
- viability, T/C [18]: 5.3%
- viability, T/C [19]: 4.72%
- viability, T/C [20]: 1.97%
- viability, T/C [5]: 7.96%
- viability, T/C [6]: 4.03%
- viability, T/C [21]: 2.64%
- viability, T/C [22]: 2.49%
- viability, T/C [23]: 1.51%
- viability, T/C [24]: 0.83%
- viability, T/C [7]: 0.1%
- viability, T/C [8]: 0.12%
- viability, T/C [25]: 0.11%
- viability, T/C [26]: 0.05%
- viability, T/C [27]: 1.02%
- viability, T/C [28]: 0.05%
- viability, T/C [9]: 0.08%
- viability, T/C [10]: 0.11%
- viability, T/C [29]: 0.12%
- viability, T/C [30]: 0.07%
- viability, T/C [31]: 0.82%
- viability, T/C [32]: 0.09%
- viability, T/C [11]: 0.18%
- viability, T/C [12]: 1.56%
- viability, T/C [33]: 0.87%
- viability, T/C [34]: 1.76%
- viability, T/C [35]: 0.56%
- viability, T/C [36]: 0.13%

Compound: O=c1[nH]cc(F)c(=O)[nH]1 + CN1CCN(c2cc(C(=O)Nc3cc4cc(-c5cnn(C)c5)ccc4cn3)ccn2)CC1
- IC50 (second compound 0.0316 µM): > 10000 nM
- IC50 (second compound 0.1 µM): > 10000 nM
- IC50 (second compound 0.316 µM): < 31.6 nM
- IC50 (second compound 1 µM): < 31.6 nM
- IC50 (second compound 3.16 µM): < 31.6 nM
- IC50 (second compound 10 µM): < 31.6 nM
- viability, T/C [1]: 92.2%
- viability, T/C [2]: 86.8%
- viability, T/C [13]: 93.4%
- viability, T/C [14]: 82.3%
- viability, T/C [15]: 74.5%
- viability, T/C [16]: 56.2%
- viability, T/C [3]: 82%
- viability, T/C [4]: 82.2%
- viability, T/C [17]: 78.4%
- viability, T/C [18]: 67.4%
- viability, T/C [19]: 70.6%
- viability, T/C [20]: 54.1%
- viability, T/C [5]: 24.9%
- viability, T/C [6]: 23.4%
- viability, T/C [21]: 28.6%
- viability, T/C [22]: 22.5%
- viability, T/C [23]: 19.1%
- viability, T/C [24]: 14.8%
- viability, T/C [7]: 0.12%
- viability, T/C [8]: 0.11%
- viability, T/C [25]: 0.1%
- viability, T/C [26]: 0.08%
- viability, T/C [27]: 1.26%
- viability, T/C [28]: 0.11%
- viability, T/C [9]: 0.39%
- viability, T/C [10]: 1.04%
- viability, T/C [29]: 0.08%
- viability, T/C [30]: 1.36%
- viability, T/C [31]: 0.05%
- viability, T/C [32]: 0.94%
- viability, T/C [11]: 1.85%
- viability, T/C [12]: 1.37%
- viability, T/C [33]: 0.12%
- viability, T/C [34]: 0.11%
- viability, T/C [35]: 0.1%
- viability, T/C [36]: 0.68%
